# In US8192962B2, “Processes for detecting toxic substances” (Daikin Industries, Ltd., priority 2001, dated 2012):
# System: Energy system protein genes
# Assay: DNA chip mRNA expression in yeast, energy system protein genes (Table 4)
# Type: cell-based, Saccharomyces cerevisiae S288C
# How it was run: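 Expression change after 2 h toxicant exposure (growth-inhibiting, sub-lethal) of log-phase S. cerevisiae S288C at 25° C. Oligo-dT-purified mRNA was labeled with Cy3-dUTP or Cy5-dUTP and hybridized >12 h at 65° C. to a genome-wide chip; ratio of scanned fluorescence to control.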
structure (smiles),measurement,setting,value
"Cl[C@H]1[C@H](Cl)[C@@H](Cl)[C@@H](Cl)[C@H](Cl)[C@H]1Cl [(7), γ-hexachlorocyclohexane]",The level of expressed mRNA in the presence of chemical substance/The level of expressed mRNA in the absence of chemical substance,yeast gene YAL060W,3.3
same,The level of expressed mRNA in the presence of chemical substance/The level of expressed mRNA in the absence of chemical substance,"yeast gene YBL058W, cells incubated two hours with the chemical substance",1.5
same,The level of expressed mRNA in the presence of chemical substance/The level of expressed mRNA in the absence of chemical substance,"yeast gene YBL099W, cells incubated two hours with the chemical substance",0.9
same,The level of expressed mRNA in the presence of chemical substance/The level of expressed mRNA in the absence of chemical substance,"yeast gene YBR001C, cells incubated two hours with the chemical substance",0.9
same,The level of expressed mRNA in the presence of chemical substance/The level of expressed mRNA in the absence of chemical substance,"yeast gene YBR185C, cells incubated two hours with the chemical substance",1.2
same,The level of expressed mRNA in the presence of chemical substance/The level of expressed mRNA in the absence of chemical substance,"yeast gene YBR221C, cells incubated two hours with the chemical substance",1.5
same,The level of expressed mRNA in the presence of chemical substance/The level of expressed mRNA in the absence of chemical substance,yeast gene YCL040W,2.9
same,The level of expressed mRNA in the presence of chemical substance/The level of expressed mRNA in the absence of chemical substance,yeast gene YCR012W,1.4
same,The level of expressed mRNA in the presence of chemical substance/The level of expressed mRNA in the absence of chemical substance,"yeast gene YCR046C, cells incubated two hours with the chemical substance",1.2
same,The level of expressed mRNA in the presence of chemical substance/The level of expressed mRNA in the absence of chemical substance,"yeast gene YCR105W, cells incubated two hours with the chemical substance",1.0
same,The level of expressed mRNA in the presence of chemical substance/The level of expressed mRNA in the absence of chemical substance,yeast gene YDL021W,5.9
same,The level of expressed mRNA in the presence of chemical substance/The level of expressed mRNA in the absence of chemical substance,"yeast gene YDL067C, cells incubated two hours with the chemical substance",0.8
same,The level of expressed mRNA in the presence of chemical substance/The level of expressed mRNA in the absence of chemical substance,"yeast gene YDL078C, cells incubated two hours with the chemical substance",1.7
same,The level of expressed mRNA in the presence of chemical substance/The level of expressed mRNA in the absence of chemical substance,"yeast gene YDL107W, cells incubated two hours with the chemical substance",1.8
same,The level of expressed mRNA in the presence of chemical substance/The level of expressed mRNA in the absence of chemical substance,yeast gene YDL174C,3.6
same,The level of expressed mRNA in the presence of chemical substance/The level of expressed mRNA in the absence of chemical substance,"yeast gene YDL181W, cells incubated two hours with the chemical substance",1.1
same,The level of expressed mRNA in the presence of chemical substance/The level of expressed mRNA in the absence of chemical substance,yeast gene YDR001C,1.5
same,The level of expressed mRNA in the presence of chemical substance/The level of expressed mRNA in the absence of chemical substance,"yeast gene YDR050C, cells incubated two hours with the chemical substance",1.5
same,The level of expressed mRNA in the presence of chemical substance/The level of expressed mRNA in the absence of chemical substance,"yeast gene YDR079W, cells incubated two hours with the chemical substance",1.3
same,The level of expressed mRNA in the presence of chemical substance/The level of expressed mRNA in the absence of chemical substance,"yeast gene YDR178W, cells incubated two hours with the chemical substance",0.6
same,The level of expressed mRNA in the presence of chemical substance/The level of expressed mRNA in the absence of chemical substance,yeast gene YDR231C,1.7
same,The level of expressed mRNA in the presence of chemical substance/The level of expressed mRNA in the absence of chemical substance,"yeast gene YDR298C, cells incubated two hours with the chemical substance",1.0
same,The level of expressed mRNA in the presence of chemical substance/The level of expressed mRNA in the absence of chemical substance,"yeast gene YDR377W, cells incubated two hours with the chemical substance",1.1
same,The level of expressed mRNA in the presence of chemical substance/The level of expressed mRNA in the absence of chemical substance,"yeast gene YDR529C, cells incubated two hours with the chemical substance",0.5
same,The level of expressed mRNA in the presence of chemical substance/The level of expressed mRNA in the absence of chemical substance,"yeast gene YEL024W, cells incubated two hours with the chemical substance",0.7
same,The level of expressed mRNA in the presence of chemical substance/The level of expressed mRNA in the absence of chemical substance,"yeast gene YEL039C, cells incubated two hours with the chemical substance",0.6
same,The level of expressed mRNA in the presence of chemical substance/The level of expressed mRNA in the absence of chemical substance,yeast gene YER178W,1.6
same,The level of expressed mRNA in the presence of chemical substance/The level of expressed mRNA in the absence of chemical substance,yeast gene YFL057C,1.8
same,The level of expressed mRNA in the presence of chemical substance/The level of expressed mRNA in the absence of chemical substance,yeast gene YFR053C,2.1
same,The level of expressed mRNA in the presence of chemical substance/The level of expressed mRNA in the absence of chemical substance,"yeast gene YGL018C, cells incubated two hours with the chemical substance",1.1
same,The level of expressed mRNA in the presence of chemical substance/The level of expressed mRNA in the absence of chemical substance,yeast gene YGL062W,1.3
same,The level of expressed mRNA in the presence of chemical substance/The level of expressed mRNA in the absence of chemical substance,"yeast gene YGL187C, cells incubated two hours with the chemical substance",0.6
same,The level of expressed mRNA in the presence of chemical substance/The level of expressed mRNA in the absence of chemical substance,"yeast gene YGL191W, cells incubated two hours with the chemical substance",1.0
same,The level of expressed mRNA in the presence of chemical substance/The level of expressed mRNA in the absence of chemical substance,"yeast gene YGL205W, cells incubated two hours with the chemical substance",0.8
same,The level of expressed mRNA in the presence of chemical substance/The level of expressed mRNA in the absence of chemical substance,"yeast gene YGL256W, cells incubated two hours with the chemical substance",0.5
same,The level of expressed mRNA in the presence of chemical substance/The level of expressed mRNA in the absence of chemical substance,yeast gene YGR008C,3.7
same,The level of expressed mRNA in the presence of chemical substance/The level of expressed mRNA in the absence of chemical substance,yeast gene YGR043C,6.5
same,The level of expressed mRNA in the presence of chemical substance/The level of expressed mRNA in the absence of chemical substance,"yeast gene YGR062C, cells incubated two hours with the chemical substance, 25° C., YPD medium",1.3
same,The level of expressed mRNA in the presence of chemical substance/The level of expressed mRNA in the absence of chemical substance,"yeast gene YGR087C, cells incubated two hours with the chemical substance",1.0
same,The level of expressed mRNA in the presence of chemical substance/The level of expressed mRNA in the absence of chemical substance,"yeast gene YGR174C, cells incubated two hours with the chemical substance",1.0
same,The level of expressed mRNA in the presence of chemical substance/The level of expressed mRNA in the absence of chemical substance,yeast gene YGR192C,1.7
same,The level of expressed mRNA in the presence of chemical substance/The level of expressed mRNA in the absence of chemical substance,yeast gene YGR244C,3.9
same,The level of expressed mRNA in the presence of chemical substance/The level of expressed mRNA in the absence of chemical substance,yeast gene YGR254W,1.5
same,The level of expressed mRNA in the presence of chemical substance/The level of expressed mRNA in the absence of chemical substance,yeast gene YHR179W,1.9
same,The level of expressed mRNA in the presence of chemical substance/The level of expressed mRNA in the absence of chemical substance,yeast gene YIL160C,1.1
same,The level of expressed mRNA in the presence of chemical substance/The level of expressed mRNA in the absence of chemical substance,"yeast gene YIR031C, cells incubated two hours with the chemical substance",1.4
same,The level of expressed mRNA in the presence of chemical substance/The level of expressed mRNA in the absence of chemical substance,yeast gene YJL052W,2.1
same,The level of expressed mRNA in the presence of chemical substance/The level of expressed mRNA in the absence of chemical substance,"yeast gene YJL121C, cells incubated two hours with the chemical substance",0.7
same,The level of expressed mRNA in the presence of chemical substance/The level of expressed mRNA in the absence of chemical substance,"yeast gene YJL166W, cells incubated two hours with the chemical substance",0.8
same,The level of expressed mRNA in the presence of chemical substance/The level of expressed mRNA in the absence of chemical substance,"yeast gene YJL216C, cells incubated two hours with the chemical substance",1.5
